# Measured values: patent US10537102B2, “Synergistic fungicidal composition for controlling plant diseases” (Sumitomo Chemical Company, Limited, priority 2016, dated 2020)
# How the values were obtained:
# [1] = system: Septoria leaf blotch (Mycosphaerella graminicola); assay: Test Example 3: growth of Septoria leaf blotch in YBG medium, microtiter plate, absorbance at 550 nm; assay type: cell-based; conditions: single use, 18° C., four days
# Procedure: Each of the present compound 1-3 or the present compound 2 was dissolved into dimethyl sulfoxide such that each concentration of these compounds was adjusted to one hundred fifty times as much as the concentration indicated in the below-mentioned Table 3. The resultant agent solution was dispensed into each microtiter plate (with 96 wells) in 1 μl portion thereof per well. 149 μl of YBG medium to which conidia of Septoria leaf blotch (Mycosphaerella graminicola) was inoculated in advance (which was prepared by dissolving 10 g of yeast extract, 10 g of Bacto Peptone, and 20 mL of glycerol into 1 L of water, followed by sterilizing the medium) was dispensed into each of the well to which the agent solution was dispensed. The plate was cultivated at 18° C. for four days, thereby allowing Septoria leaf blotch (Mycosphaerella graminicola) to undergo proliferation, and the absorbance at 550 nm of each well of the microtiter plate was then measured to examine a degree of growth of Septoria leaf blotch (hereinafter referred to as “treated group”).
# Whereas, Septoria leaf blotch was proliferated similarly to the case of the treated group except that dimethyl sulfoxide was used instead of the agent solution, and the degree of the growth was examined (hereinafter referred to as “untreated group”). The efficacy was calculated from each of the obtained degree of growth of the treated group and the untreated group respectively by the following “Equation 1”.
# Efficacy (%)=100×(X−Y)/X Equation 1
# X: Degree of growth of fungus in the untreated group
# Y: Degree of growth of fungus in the treated group
# [2] = system: Brown rust (Puccinia recondita); assay: Test Example 4: foliar spray on wheat, Brown rust lesion area; assay type: in vivo, Puccinia recondita on wheat (cultivar. Shirogane); conditions: single use, flowable, foliar spray one day before inoculation
# Procedure: Five (5) parts of the present compound 1-3, 35 parts of a mixture of white carbon and ammonium polyoxyethylene alkyl ether sulfate (the weight ratio of 1:1) and […] of water were mixed, and the mixture was then finely-ground by a wet grinding method to obtain a flowable comprising the present compound 1-3. Separately, the flowable comprising the present compound 2 was prepared according to the above-mentioned similar method except that the […].
# Each of the flowable comprising the present compound 1-3 and the flowable comprising the present compound 2 was diluted with water and if necessary, the resultant dilute solutions were mixed each other such that each concentration of the respective compounds in the dilution solution was adjusted to the concentration indicated in Table 4, to prepare the dilution solutions, respectively.
# A plastic pot was filled with soil, and thereto wheat (cultivar. Shirogane) was seeded, and the plants were grown in a greenhouse for ten days. The above-mentioned dilution solutions were sprayed to foliar parts so as to adhere adequately onto the surfaces of leaves of the above wheats. After spraying the dilute solution, the plants were air-dried, and one day after the application, an aqueous suspension of uredospores of Brown rust (Puccinia recondita) was inoculated by spraying thereto. After the inoculation, the plants were placed at 27° C. under humid condition for one day, and were then cultivated under lighting for ten days, and a lesion area was examined (hereinafter referred to as “lesion area of treated group”).
# Whereas, wheats were cultivated similarly to the treated group except that no foliage application of the above-mentioned agent solution was done, and Brown rust were inoculated, and the lesion area thereof was examined (hereinafter referred to as “lesion area of the untreated group”).
# From each of the lesion area of the treated group and the untreated group, respectively, the efficacy of the treated group was calculated by the following Equation 2.
# Efficacy (%)=[1−(lesion area of the treated group)/(lesion area of the untreated group)]×100 Equation 2
Structure (SMILES),Efficacy (%) ([1]; concentration in medium 0.0001 ppm),Efficacy (%) ([1]; concentration in medium 0.01 ppm),Efficacy (%) ([2]; concentration in agent solution 0.002 ppm),Efficacy (%) ([2]; concentration in agent solution 0.01 ppm),Efficacy (%) ([1]; concentration in medium 0.001 ppm),Efficacy (%) ([2]; concentration in agent solution 0.001 ppm),Efficacy (%) ([2]; concentration in agent solution 0.02 ppm)
"Cc1cccc(-n2nnn(C)c2=O)c1COc1ccn(-c2ccc(Cl)cc2)n1 [Present compound 1-3, 1-(2-{[1-(4-chlorophenyl)-1H-pyrazol-3-yl]oxymethyl}-3-methylphenyl)-4-methyl-1,4-dihydrotetrazol-5-one]",20,37,35,70,–,–,–
CC1CC(C)(C)c2c(F)ccc(NC(=O)c3cn(C)nc3C(F)F)c21 (stereo not shown) [Present compound 2],–,–,–,–,20,15,55
